Measurements taken from ChEMBL document CHEMBL4507314 (2021).
Activity calls are given as the source filed them. The rule behind the calls is not given here.

Experiments:
[1] = biological target: Mitogen-activated protein kinase 14 (Homo sapiens, UniProt Q16539); test: NanoBRET (MAPK14)
[2] = biological target: Mitogen-activated protein kinase 11 (Homo sapiens, UniProt Q15759); test: NanoBRET (MAPK11)
[3] = biological target: Heat shock protein beta-1 (Homo sapiens, UniProt P04792); test: Inhibition of HSP27 (Ser82) (Western blot)
Sequence of Heat shock protein beta-1 (P04792 whole entry): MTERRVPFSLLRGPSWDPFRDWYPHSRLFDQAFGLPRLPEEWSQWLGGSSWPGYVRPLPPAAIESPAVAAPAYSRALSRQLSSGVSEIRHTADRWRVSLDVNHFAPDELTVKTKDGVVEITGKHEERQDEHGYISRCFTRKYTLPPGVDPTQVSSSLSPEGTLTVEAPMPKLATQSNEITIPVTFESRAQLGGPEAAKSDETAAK

Sequence of Mitogen-activated protein kinase 11 (Q15759 whole entry): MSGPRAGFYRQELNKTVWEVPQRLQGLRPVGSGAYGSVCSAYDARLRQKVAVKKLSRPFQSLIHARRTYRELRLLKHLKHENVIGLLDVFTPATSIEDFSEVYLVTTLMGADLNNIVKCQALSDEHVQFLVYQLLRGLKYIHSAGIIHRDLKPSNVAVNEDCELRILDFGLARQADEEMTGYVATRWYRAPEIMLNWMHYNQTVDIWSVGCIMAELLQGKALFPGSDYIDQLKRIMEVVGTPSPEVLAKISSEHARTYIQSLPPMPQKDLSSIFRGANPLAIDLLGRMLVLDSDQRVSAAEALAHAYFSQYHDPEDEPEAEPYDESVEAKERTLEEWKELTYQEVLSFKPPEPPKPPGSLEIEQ
Sequence of Mitogen-activated protein kinase 14 (Q16539 whole entry): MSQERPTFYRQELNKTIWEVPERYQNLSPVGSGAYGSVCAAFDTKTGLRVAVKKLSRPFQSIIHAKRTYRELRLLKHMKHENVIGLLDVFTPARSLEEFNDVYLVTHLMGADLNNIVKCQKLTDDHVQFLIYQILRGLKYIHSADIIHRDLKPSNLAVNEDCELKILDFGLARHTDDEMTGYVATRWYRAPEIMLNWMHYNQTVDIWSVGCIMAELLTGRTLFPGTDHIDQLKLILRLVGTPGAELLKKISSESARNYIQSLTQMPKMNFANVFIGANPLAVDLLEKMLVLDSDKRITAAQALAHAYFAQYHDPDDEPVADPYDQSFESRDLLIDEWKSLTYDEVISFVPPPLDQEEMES

Row | IC50 [1] | IC50 [2] | IC50 [3] | Compound
1 | 11.3 µM (not active) | 16.2 µM (not active) | – | CN(C(=O)c1ccccc1)c1cc(N(C)c2ccc3c(c2)CCc2ccc(C(=O)NCCN4CCOCC4)cc2C3=O)ccc1F [FM-743]
2 | – | 0.0169 µM (active) | < 1 µM (active) | O=C(NCCN1CCOCC1)c1ccc2c(c1)C(=O)c1ccc(Nc3ccc(F)c(NC(=O)c4ccccc4)c3)cc1CC2 [FS-694]
